Measured values reported in PMC11604048, “Constrained TACC3 peptidomimetics for a non-canonical protein–protein interface elucidate allosteric communication in Aurora-A kinase” (Chemical Science, 2024).
Read-outs that look alike come from different tables or passages of the source. Each block holds one molecule with its values, some of them ahead of it. *1 amine or outer side, *2 acyl side, *3 side chain or, on linkers, in order; H or OH if unused. Where a SMILES comes first, the peptide text is derived from it. Bridges are numbered along the chain shown (N, C = ends). [ ]: non-standard residue; d: D form. Maleimide(3,4-diyl) = O=C1NC(=O)C([*:2])=C1[*:1]; Bpa = N[C@@H](Cc1ccc(C(=O)c2ccccc2)cc1)C(=O)O; Nle = CCCC[C@H](N)C(=O)O

Target: T1, Aurora-A122-403-C290A/C393A (Homo sapiens, UniProt O14965, C290A/C393A)
T1 construct: Human Aurora-A kinase domain 122-403 wild-type or C290A/ C393A mutant; His tag (pET30TEV vector) (N, cleaved yes); made in house; host or cells: E. coli RIL, co-expressed with lambda phosphatase (Aurora-A); tracer by solid phase synthesis
T1 sequence (O14965 122-403 C290A/C393A): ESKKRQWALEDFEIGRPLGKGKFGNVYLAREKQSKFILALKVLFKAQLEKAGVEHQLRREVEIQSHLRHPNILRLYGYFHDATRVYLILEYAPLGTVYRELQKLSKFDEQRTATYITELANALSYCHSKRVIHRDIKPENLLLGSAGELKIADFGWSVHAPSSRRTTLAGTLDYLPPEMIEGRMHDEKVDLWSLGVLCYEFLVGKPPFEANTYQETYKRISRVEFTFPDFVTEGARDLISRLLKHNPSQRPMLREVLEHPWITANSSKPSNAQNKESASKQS
Test: Competition FA assay against FAM-Ahx-TACC3 522-536 tracer
Assay type: binding

[1] = as E1, oxidised (disulfide) species made in situ from 10 mM stock in aqueous DMSO 33% v/v, air, overnight, WT control (+DMSO) given the same DMSO incubation, mean ± SD, n = 3, read-out: IC50 (ox)

Molecule: CC(=O)N[C@@H](CCC(=O)O)C(=O)N[C@@H](CCC(=O)O)C(=O)N[C@H]1CSC2=C(SC[C@@H](C(=O)N3CCC[C@H]3C(=O)N[C@@H](C)C(=O)N[C@@H](CCC(=O)O)C(=O)N[C@H](C(=O)N[C@@H](CC(C)C)C(=O)NCC(=O)N[C@H](C(=O)NCC(=O)N[C@@H](C)C(N)=O)[C@@H](C)O)C(C)C)NC(=O)[C@H](CCCNC(=N)N)NC(=O)[C@H](Cc3ccccc3)NC1=O)C(=O)NC2=O [TACC3 522-536 S524C/D527C (mal)] (Ac-EECFRCPAEVLGTGA-NH2; linker 3-6 via Maleimide(3,4-diyl) (inferred))
IC50 (as E1, Table S3 (mal): maleimide-constrained species, WT value is an individual replica control assay, mean ± SD, n = 3, read-out: IC50 (mal)): ≥ 500 µM

Molecule: CC(=O)N[C@@H](CCC(=O)O)C(=O)N[C@@H](CCC(=O)O)C(=O)N[C@H]1CSSC[C@@H](C(=O)N2CCC[C@H]2C(=O)N[C@@H](C)C(=O)N[C@@H](CCC(=O)O)C(=O)N[C@H](C(=O)N[C@@H](CC(C)C)C(=O)NCC(=O)N[C@H](C(=O)NCC(=O)N[C@@H](C)C(N)=O)[C@@H](C)O)C(C)C)NC(=O)[C@H](CCCNC(=N)N)NC(=O)[C@H](Cc2ccccc2)NC1=O [TACC3 522-536 S524C/D527C (ox)] (Ac-EECFRCPAEVLGTGA-NH2; disulfide 3-6)
IC50 [1]: ≥ 500 µM

Molecule: CC(=O)N[C@@H](CCC(=O)O)C(=O)N[C@@H](CCC(=O)O)C(=O)N[C@@H](CS)C(=O)N[C@@H](Cc1ccccc1)C(=O)N[C@@H](CCCNC(=N)N)C(=O)N[C@@H](CS)C(=O)N1CCC[C@H]1C(=O)N[C@@H](C)C(=O)N[C@@H](CCC(=O)O)C(=O)N[C@H](C(=O)N[C@@H](CC(C)C)C(=O)NCC(=O)N[C@H](C(=O)NCC(=O)N[C@@H](C)C(N)=O)[C@@H](C)O)C(C)C [TACC3 522-536 S524C/D527C (red)] (Ac-EECFRCPAEVLGTGA-NH2)
IC50 (as E1, free-sulfhydryl (reduced) species, DTT 5 mM in buffer, WT control (+DTT), mean ± SD, n = 3, SD, read-out: IC50 (red)): 309 ± 38 µM

Molecule: CC(=O)N[C@@H](CCC(=O)O)C(=O)N[C@@H](CCC(=O)O)C(=O)N[C@@H](CO)C(=O)N[C@@H](Cc1ccccc1)C(=O)N[C@@H](CCCNC(=N)N)C(=O)N[C@@H](CC(=O)O)C(=O)N1CCC[C@H]1C(=O)N[C@@H](C)C(=O)N[C@@H](CCC(=O)O)C(=O)N[C@H]1CSC2=C(SC[C@@H](C(=O)NCC(=O)N[C@@H](C)C(N)=O)NC(=O)CNC(=O)[C@H](CC(C)C)NC1=O)C(=O)NC2=O [TACC3 522-536 V531C/T534C (mal)] (Ac-EESFRDPAECLGCGA-NH2; linker 10-13 via Maleimide(3,4-diyl))
IC50 (as E1, Table S3 (mal): maleimide-constrained species, WT value is an individual replica control assay, mean ± SD, n = 3, SD, read-out: IC50 (mal)): 412 ± 73 µM

Molecule: CC(=O)N[C@@H](CCC(=O)O)C(=O)N[C@@H](CCC(=O)O)C(=O)N[C@@H](CO)C(=O)N[C@@H](Cc1ccccc1)C(=O)N[C@@H](CCCNC(=N)N)C(=O)N[C@@H](CC(=O)O)C(=O)N1CCC[C@H]1C(=O)N[C@@H](C)C(=O)N[C@@H](CCC(=O)O)C(=O)N[C@H]1CSSC[C@@H](C(=O)NCC(=O)N[C@@H](C)C(N)=O)NC(=O)CNC(=O)[C@H](CC(C)C)NC1=O [TACC3 522-536 V531C/T534C (ox)] (Ac-EESFRDPAECLGCGA-NH2; disulfide 10-13)
IC50 [1]: ≥ 500 µM

Molecule: CC(=O)N[C@@H](CCC(=O)O)C(=O)N[C@@H](CCC(=O)O)C(=O)N[C@@H](CO)C(=O)N[C@@H](Cc1ccccc1)C(=O)N[C@@H](CCCNC(=N)N)C(=O)N[C@@H](CC(=O)O)C(=O)N1CCC[C@H]1C(=O)N[C@@H](C)C(=O)N[C@@H](CCC(=O)O)C(=O)N[C@@H](CS)C(=O)N[C@@H](CC(C)C)C(=O)NCC(=O)N[C@@H](CS)C(=O)NCC(=O)N[C@@H](C)C(N)=O [TACC3 522-536 V531C/T534C (red)] (Ac-EESFRDPAECLGCGA-NH2)
IC50 (as E1, free-sulfhydryl (reduced) species, DTT 5 mM in buffer, WT control (+DTT), mean ± SD, n = 3, read-out: IC50 (red)): ≥ 500 µM

Molecule: CC(=O)N[C@@H](CCC(=O)O)C(=O)N[C@@H](CCC(=O)O)C(=O)N[C@@H](CO)C(=O)N[C@@H](Cc1c(F)c(F)c(F)c(F)c1F)C(=O)N[C@@H](CCCNC(=N)N)C(=O)N[C@@H](CC(=O)O)C(=O)N1CCC[C@H]1C(=O)N[C@@H](C)C(=O)N[C@@H](CCC(=O)O)C(=O)N[C@H](C(=O)N[C@@H](CC(C)C)C(=O)NCC(=O)N[C@H](C(=O)NCC(=O)N[C@@H](C)C(N)=O)[C@@H](C)O)C(C)C [TACC3 522-536_5f-525F]
IC50 (SD, read-out: IC50): 97 ± 10 µM

Molecule: CC(=O)N[C@@H](CCC(=O)O)C(=O)N[C@@H](CCC(=O)O)C(=O)N[C@@H](CO)C(=O)N[C@@H](Cc1ccc(Br)cc1)C(=O)N[C@@H](CCCNC(=N)N)C(=O)N[C@@H](CC(=O)O)C(=O)N1CCC[C@H]1C(=O)N[C@@H](C)C(=O)N[C@@H](CCC(=O)O)C(=O)N[C@H](C(=O)N[C@@H](CC(C)C)C(=O)NCC(=O)N[C@H](C(=O)NCC(=O)N[C@@H](C)C(N)=O)[C@@H](C)O)C(C)C [TACC3 522-536_(4-Br)525F]
IC50 (SD, read-out: IC50): 34 ± 6 µM

Molecule: CC(=O)N[C@@H](CCC(=O)O)C(=O)N[C@@H](CCC(=O)O)C(=O)N[C@@H](CO)C(=O)N[C@@H](Cc1ccc(C(F)(F)F)cc1)C(=O)N[C@@H](CCCNC(=N)N)C(=O)N[C@@H](CC(=O)O)C(=O)N1CCC[C@H]1C(=O)N[C@@H](C)C(=O)N[C@@H](CCC(=O)O)C(=O)N[C@H](C(=O)N[C@@H](CC(C)C)C(=O)NCC(=O)N[C@H](C(=O)NCC(=O)N[C@@H](C)C(N)=O)[C@@H](C)O)C(C)C [TACC3 522-536_(4-CF3)525F]
IC50 (SD, read-out: IC50): 170 ± 17 µM

Molecule: CC(=O)N[C@@H](CCC(=O)O)C(=O)N[C@@H](CCC(=O)O)C(=O)N[C@@H](CO)C(=O)N[C@@H](Cc1ccc(C#N)cc1)C(=O)N[C@@H](CCCNC(=N)N)C(=O)N[C@@H](CC(=O)O)C(=O)N1CCC[C@H]1C(=O)N[C@@H](C)C(=O)N[C@@H](CCC(=O)O)C(=O)N[C@H](C(=O)N[C@@H](CC(C)C)C(=O)NCC(=O)N[C@H](C(=O)NCC(=O)N[C@@H](C)C(N)=O)[C@@H](C)O)C(C)C [TACC3 522-536_(4-CN) -525F]
IC50 (SD, read-out: IC50): 138 ± 8 µM

Molecule: CC(=O)N[C@@H](CCC(=O)O)C(=O)N[C@@H](CCC(=O)O)C(=O)N[C@@H](CO)C(=O)N[C@@H](Cc1ccc(C(=O)c2ccccc2)cc1)C(=O)N[C@@H](CCCNC(=N)N)C(=O)N[C@@H](CC(=O)O)C(=O)N1CCC[C@H]1C(=O)N[C@@H](C)C(=O)N[C@@H](CCC(=O)O)C(=O)N[C@H](C(=O)N[C@@H](CC(C)C)C(=O)NCC(=O)N[C@H](C(=O)NCC(=O)N[C@@H](C)C(N)=O)[C@@H](C)O)C(C)C [TACC3 522-536_(pBnz) -525F] (Ac-EES[Bpa]RDPAEVLGTGA-NH2)
IC50: ≥ 500 µM

Results, then the molecule that gave them:

IC50 (SD, read-out: IC50): 46 ± 8 µM
Molecule: CC(=O)N[C@@H](CCC(=O)O)C(=O)N[C@@H](CCC(=O)O)C(=O)N[C@@H](CO)C(=O)N[C@@H](Cc1ccc(Cl)cc1)C(=O)N[C@@H](CCCNC(=N)N)C(=O)N[C@@H](CC(=O)O)C(=O)N1CCC[C@H]1C(=O)N[C@@H](C)C(=O)N[C@@H](CCC(=O)O)C(=O)N[C@H](C(=O)N[C@@H](CC(C)C)C(=O)NCC(=O)N[C@H](C(=O)NCC(=O)N[C@@H](C)C(N)=O)[C@@H](C)O)C(C)C [TACC3 522-536_(4-Cl)525F]

IC50 (SD, read-out: IC50): 184 ± 22 µM
Molecule: CC(=O)N[C@@H](CCC(=O)O)C(=O)N[C@@H](CCC(=O)O)C(=O)N[C@@H](CO)C(=O)N[C@@H](Cc1ccc(F)cc1)C(=O)N[C@@H](CCCNC(=N)N)C(=O)N[C@@H](CC(=O)O)C(=O)N1CCC[C@H]1C(=O)N[C@@H](C)C(=O)N[C@@H](CCC(=O)O)C(=O)N[C@H](C(=O)N[C@@H](CC(C)C)C(=O)NCC(=O)N[C@H](C(=O)NCC(=O)N[C@@H](C)C(N)=O)[C@@H](C)O)C(C)C [TACC3 522-536_(4-F)525F]

IC50 (SD, read-out: IC50): 34 ± 3 µM
Molecule: CC(=O)N[C@@H](CCC(=O)O)C(=O)N[C@@H](CCC(=O)O)C(=O)N[C@@H](CO)C(=O)N[C@@H](Cc1ccc(I)cc1)C(=O)N[C@@H](CCCNC(=N)N)C(=O)N[C@@H](CC(=O)O)C(=O)N1CCC[C@H]1C(=O)N[C@@H](C)C(=O)N[C@@H](CCC(=O)O)C(=O)N[C@H](C(=O)N[C@@H](CC(C)C)C(=O)NCC(=O)N[C@H](C(=O)NCC(=O)N[C@@H](C)C(N)=O)[C@@H](C)O)C(C)C [TACC3 522-536_(4-I)525F]

IC50 (read-out: IC50): ≥ 500 µM
Molecule: CC(=O)N[C@@H](CCC(=O)O)C(=O)N[C@@H](CCC(=O)O)C(=O)N[C@@H](CO)C(=O)NC(C)(Cc1ccccc1)C(=O)N[C@@H](CCCNC(=N)N)C(=O)N[C@@H](CC(=O)O)C(=O)N1CCC[C@H]1C(=O)N[C@@H](C)C(=O)N[C@@H](CCC(=O)O)C(=O)N[C@H](C(=O)N[C@@H](CC(C)C)C(=O)NCC(=O)N[C@H](C(=O)NCC(=O)N[C@@H](C)C(N)=O)[C@@H](C)O)C(C)C (stereo partly drawn) [TACC3 522-536_(α-Me) -525F]

IC50 (read-out: IC50): ≥ 300 µM
Molecule: COc1ccc(C[C@H](NC(=O)[C@H](CO)NC(=O)[C@H](CCC(=O)O)NC(=O)[C@H](CCC(=O)O)NC(C)=O)C(=O)N[C@@H](CCCNC(=N)N)C(=O)N[C@@H](CC(=O)O)C(=O)N2CCC[C@H]2C(=O)N[C@@H](C)C(=O)N[C@@H](CCC(=O)O)C(=O)N[C@H](C(=O)N[C@@H](CC(C)C)C(=O)NCC(=O)N[C@H](C(=O)NCC(=O)N[C@@H](C)C(N)=O)[C@@H](C)O)C(C)C)cc1 [TACC3 522-536_F525Y(OMe)] (Ac-EESY(Me)RDPAEVLGTGA-NH2)

IC50 (read-out: IC50): ≥ 300 µM
Molecule: CCCC[C@H](NC(=O)[C@H](CCC(=O)O)NC(=O)[C@H](C)NC(=O)[C@@H]1CCCN1C(=O)[C@H](CC(=O)O)NC(=O)[C@H](CCCNC(=N)N)NC(=O)[C@H](Cc1ccccc1)NC(=O)[C@H](CO)NC(=O)[C@H](CCC(=O)O)NC(=O)[C@H](CCC(=O)O)NC(C)=O)C(=O)N[C@@H](CC(C)C)C(=O)NCC(=O)N[C@H](C(=O)NCC(=O)N[C@@H](C)C(N)=O)[C@@H](C)O [TACC3 522-536_V531nL] (Ac-EESFRDPAE[Nle]LGTGA-NH2)

IC50 (read-out: IC50): ≥ 300 µM
Molecule: Ac-EESFRDPAEILGTGA-NH2 [TACC3 522-536_V531I]

IC50 (read-out: IC50): ≥ 500 µM
Molecule: Ac-EESYRDPAEVLGTGA-NH2 [TACC3 522-536_F525Y]
